Biological target: PI4K-IIIβ (Homo sapiens, UniProt Q9UBF8)
Experiment: PI-kinase assay (membrane capture assay for lipid kinase activity), PI4KIIIβ
Type: biochemical
Details: read-out: PI4KIIIβ kinase activity (IC50 class)
Method: PI4-kinase inhibition can be determined by a kinase activity assay, e.g., by an assay that determines the level of incorporation of radiolabeled phosphate from [γ-^32P]-ATP into a substrate molecule after treatment with a subject compound, relative to a control, by measuring the beta-particle emission rate using a scintillation counter or phosphorimaging.
PI-kinase assay: Compounds are tested in C.1.1. PI kinase assays as described by Shokat et al., “A membrane capture assay for lipid kinase activity.” Nat. Protoc. […] Selected compounds of Table 1 and 2 were prepared and tested for inhibition activity in a variety of kinase assays.

PI4K-IIIβ, sequence (Q9UBF8 whole entry): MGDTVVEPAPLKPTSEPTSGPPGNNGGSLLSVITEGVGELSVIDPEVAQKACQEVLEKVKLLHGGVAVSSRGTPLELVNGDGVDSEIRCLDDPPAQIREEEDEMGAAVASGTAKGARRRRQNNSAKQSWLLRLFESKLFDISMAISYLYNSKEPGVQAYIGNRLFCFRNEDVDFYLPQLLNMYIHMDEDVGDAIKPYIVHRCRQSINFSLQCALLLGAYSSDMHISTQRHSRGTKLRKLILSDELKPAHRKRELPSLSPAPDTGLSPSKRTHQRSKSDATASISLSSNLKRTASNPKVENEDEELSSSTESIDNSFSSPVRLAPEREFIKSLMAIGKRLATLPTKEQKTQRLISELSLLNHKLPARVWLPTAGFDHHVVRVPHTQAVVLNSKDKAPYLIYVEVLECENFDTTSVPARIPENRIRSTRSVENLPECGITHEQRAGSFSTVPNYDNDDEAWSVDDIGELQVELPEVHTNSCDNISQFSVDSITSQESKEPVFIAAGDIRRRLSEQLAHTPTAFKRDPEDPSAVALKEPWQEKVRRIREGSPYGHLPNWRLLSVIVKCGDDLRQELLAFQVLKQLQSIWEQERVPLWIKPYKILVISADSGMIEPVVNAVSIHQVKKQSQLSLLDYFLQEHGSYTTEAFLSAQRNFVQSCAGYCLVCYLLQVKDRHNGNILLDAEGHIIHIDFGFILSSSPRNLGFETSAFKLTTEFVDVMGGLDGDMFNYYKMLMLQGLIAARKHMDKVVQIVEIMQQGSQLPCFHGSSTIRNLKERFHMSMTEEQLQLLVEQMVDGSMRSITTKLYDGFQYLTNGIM

IC50 | SMILES
100 to 1000 nM | COc1ccc(-c2sc(NCC3CCCCC3)nc2C)cc1S(=O)(=O)NCC1CCCCC1 [Compound S-128, N-(cyclohexylmethyl)-5-[2-(cyclohexylmethylamino)-4-methyl-thiazol-5-yl]-2-methoxy-benzenesulfonamide]
100 to 1000 nM | COc1ccc(-c2sc(NC3CCCCC3)nc2C)cc1S(=O)(=O)NC1CCCC1 [Compound S-129, 5-[2-(cyclohexylamino)-4-methyl-thiazol-5-yl]-N-cyclopentyl-2-methoxy-benzenesulfonamide]
100 to 1000 nM | COc1ccc(-c2sc(NC3CCCCC3)nc2C)cc1S(=O)(=O)NC1CCCCCC1 [Compound S-131, N-cycloheptyl-5-[2-(cyclohexylamino)-4-methyl-thiazol-5-yl]-2-methoxy-benzenesulfonamide]
< 100 nM | COc1ccc(-c2sc(NCC3CCCCC3)nc2C)cc1S(=O)(=O)NC1CCN(C2CCCC2)CC1 [Compound S-133, 5-[2-(cyclohexylmethylamino)-4-methyl-thiazol-5-yl]-N-(1-cyclopentyl-4-piperidyl)-2-methoxy-benzenesulfonamide]
< 100 nM | COc1ccc(-c2sc(NCC3CCCCC3)nc2C)cc1S(=O)(=O)NC1CCN(C(C)C)CC1 [Compound S-134, 5-[2-(cyclohexylmethylamino)-4-methyl-thiazol-5-yl]-N-(1-isopropyl-4-piperidyl)-2-methoxy-benzenesulfonamide]
< 100 nM | COc1ccc(-c2sc(NCC3CCCCC3)nc2C)cc1S(=O)(=O)NC1CCN(C2CC2)CC1 [Compound S-135, 5-[2-(cyclohexylmethylamino)-4-methyl-thiazol-5-yl]-N-(1-cyclopropyl-4-piperidyl)-2-methoxy-benzenesulfonamide]
< 100 nM | COc1ccc(-c2sc(NCC3CCCCC3)nc2C)cc1S(=O)(=O)NC1CCN(C2CCCCC2)CC1 [Compound S-136, 5-[2-(cyclohexylmethylamino)-4-methyl-thiazol-5-yl]-N-(1-cyclohexyl-4-piperidyl)-2-methoxy-benzenesulfonamide]

The next lines start with the compound.

SMILES | IC50
COc1ccc(-c2sc(NC(=O)CC3CCCC3)nc2C)cc1S(=O)(=O)Nc1ccc(O)cc1 [Compound S-1, 2-cyclopentyl-N-[5-[3-[(4-hydroxyphenyl)sulfamoyl]-4-methoxy-phenyl]-4-methyl-thiazol-2-yl]acetamide] | < 100 nM
COc1ccc(-c2sc(NC(=O)C3CCCC3)nc2C)cc1S(=O)(=O)N[C@H]1CC[C@H](O)CC1 [Compound S-9, N-[5-[3-[(4-hydroxycyclohexyl)sulfamoyl]-4-methoxy-phenyl]-4-methyl-thiazol-2-yl]cyclopentanecarboxamide] | < 100 nM
COc1ccc(-c2sc(NC(=O)C3CCCC3)nc2C)cc1S(=O)(=O)Nc1ccc(CO)cc1 [Compound S-41, N-[5-[3-[[4-(hydroxymethyl)phenyl]sulfamoyl]-4-methoxy-phenyl]-4-methyl-thiazol-2-yl]cyclopentanecarboxamide] | < 100 nM
COc1ccc(-c2sc(NC(=O)Cc3ccccc3)nc2C)cc1S(=O)(=O)Nc1ccc(O)cc1 [Compound S-49, N-[5-[3-[(4-hydroxyphenyl)sulfamoyl]-4-methoxy-phenyl]-4-methyl-thiazol-2-yl]-2-phenyl-acetamide] | < 100 nM
COc1ccc(-c2sc(NC3CCCCCC3)nc2C)cc1S(=O)(=O)Nc1c(C)cccc1C [Compound S-98, 5-[2-(cycloheptylamino)-4-methyl-thiazol-5-yl]-N-(2,6-dimethylphenyl)-2-methoxy-benzenesulfonamide;2,2,2-trifluoroacetic acid] | < 100 nM
COc1ccc(-c2sc(NCC3CCCCC3)nc2C)cc1S(=O)(=O)NC1CCNCC1 [Compound S-123, 5-[2-(cyclohexylmethylamino)-4-methyl-thiazol-5-yl]-2-methoxy-N-(4-piperidyl)benzenesulfonamide] | < 100 nM
COc1ccc(-c2sc(NCC3CCCCC3)nc2C)cc1S(=O)(=O)NC1CC1 [Compound S-127, 5-[2-(cyclohexylmethylamino)-4-methyl-thiazol-5-yl]-N-cyclopropyl-2-methoxy-benzenesulfonamide] | 100 to 1000 nM

From US20220062243A1, “P14-Kinase Inhibitors with Anti-Cancer Activity” (The Board of Trustees of the Leland Stanford Junior …, priority 2019, published 2022)
